Measured values reported in patent US20110230659A1, “CYCLOBUTYL PURINE DERIVATIVE, ANGIOGENESIS PROMOTING AGENT, LUMEN FORMATION PROMOTING AGENT, NEUROCYTE GROWTH PROMOTING AGENT, AND DRUG” (NATIONAL UNIVERSITY CORPORATION KAGAWA UNIVERSITY, priority 2008, published 2011).

Columns and labels:
ERK = ERK activation (phosphorylation) immunoblot in HUVEC; assay type: cell-based, human
Protocol: First, to a HuMedia-EB2 medium (Kurabo) to which 2 v/v % inactivated fetal bovine serum (FBS) had been added, 2-Cl—C.OXT-A was added so that its concentration became 100 μmol/l. Thus, a medium was prepared. Using the medium, human umbilical vein endothelial cells (HUVEC) were cultured for predetermined periods (0, 10, 20, 30, 45, and 60 minutes).
After the culture, cells were collected. The collected cells were lysed by adding a cell lysis buffer (SDS-lysis buffer) thereto, and heat-denatured at 95° C. for 5 minutes. The solubilized protein in an amount corresponding to 5 v/v % of the heat-denatured cell lysate was subjected to electrophoresis using 10% SDS-polyacrylamide gel, whereby the solubilized protein was transferred onto a nitrocellulose membrane (Amersham Biosciences). To 20 ml of TBS-T having the following composition, skim milk (Wako) was added so that its concentration became 5%, thus preparing a blocking solution. The resultant nitrocellulose membrane was immersed in the blocking solution and shaken at room temperature for 1 hour.
(§1) Primary antibodies shown below were diluted 1000-fold by adding them to 5% bovine serum albumin (Sigma)-containing TBS-T, thus preparing a primary antibody solution. The nitrocellulose membrane after being subjected to the blocking was immersed in the primary antibody solution, and shaken at room temperature for 1 hour. The resultant nitrocellulose membrane was immersed in the TBS-T and washed by being shaken for 10 minutes. This washing operation was carried out three times in total.
as §1, with “Secondary” for “Primary”, “20000-fold” for “1000-fold”, “to” for “to 5% bovine serum albumin (Sigma)-containing”, “secondary” for “primary”, “having undergone” for “after being subjected to”, “reaction with the primary antibodies” for “blocking”
The enzymes were visualized with SuperSignal (registered trademark) West Pico Chemiluminescent Substrate (Pierce), and detected by being exposed to RX—U X-ray film (FUJIFILM Corporation). From the detected bands, the respective phosphoenzymes and total enzymes were quantified using an NIH image software. Furthermore, the relative value (−fold) of each phosphoenzyme was calculated by substituting the measured value of the phosphoenzyme into the following equation (III).
Relative value(−fold)of phosphoenzyme=(B/D)/(A/C) (III)
In the present example, the effect of 2-Cl—C.OXT-A of Example 1 and C.OXT-G of Comparative Example 2 on the activation (phosphorylation) of ERK was examined. In the present example, the amount of each enzyme was measured and the relative value (−fold) of each phosphoenzyme was calculated in the same manner as in Example 3, except that: a medium to which 2-Cl—C.OXT-A had been added so as to achieve predetermined concentrations (0, 10 and 100 μmol/l) and a medium to which 100 μmol/l C.OXT-G had been added were used; the culture period after the addition was set to 20 minutes: as the primary antibodies, only an anti-phospho ERK polyclonal antibody (Catalog No. 9101, Cell Signaling Technology) and an anti-total ERK monoclonal antibody (Catalog No. 610408, BD Transduction Laboratory) were used; as the secondary antibody for ERK, a sheep HRP-labeled anti-mouse IgG antibody (Pierce) was used; and as a secondary antibody of pERK, a sheep HRP-labeled anti-rabbit IgG antibody (Pierce) was used.
In the present example, the effect of PD98059 as an MEK inhibitor on the ERK activation (phosphorylation) by 2-Cl—C.OXT-A used in Example 1 was examined. […]

[1] = system: human umbilical vein endothelial cells (HUVEC) and normal human dermal fibroblasts; assay: Measurement of lumen formation (angiogenesis kit, CD31 immunostaining, lumen area); assay type: cell-based; settings: for lumen formation promoting-activity for vascular endothelial cells: examined in the same manner as in Example 1
Protocol: The measurement of lumen formation was carried out in the following manner using commercially available angiogenesis kits (Kurabo), each including human umbilical vein endothelial cells (HUVEC) and normal human dermal fibroblasts. First, sample solutions were prepared by dissolving 2-Cl—C.OXT-A in physiological saline so as to achieve predetermined concentrations (1, 10, 100, 500 μmol/l, 1, 5, 10, 50 mmol/l). Then, the sample solutions containing 2-Cl—C.OXT-A at the predetermined concentrations respectively were added to media provided in the kits so that their concentrations became 10 v/v %. Thus, lumen formation media were prepared. The final concentrations of 2-Cl—C.OXT-A in the lumen formation media were 0.1, 1, 10, 50, 100, 500 μmol/l, 1 and 5 mmol/1.
Using each of the lumen formation media, the human umbilical vein endothelial cells (HUVEC) and the normal human dermal fibroblasts were cultured for 10 days. After the culture, the human umbilical vein endothelial cells (HUVEC) were immunostained using a lumen staining kit (for CD31 staining, Kurabo). Then, using NIH Image (image processing and analysis software), the area of a portion stained by the immunostaining (lumen area) was measured. As a control, a medium provided in the kit was used instead of the lumen formation medium to carry out the culture, and the cells were immunostained and the lumen area was measured in the same manner as in the above. Then, using the following equation (II), the relative value of lumen area in the culture using each of the lumen formation media containing 2-Cl—C.OXT-A at the predetermined concentrations was calculated.
In the present example, the relative value of lumen area was calculated in the same manner as in the lumen formation measurement in Example 1, except that the measurement was carried out with respect to four groups respectively using media Nos. 5 to 8 prepared by adding 2-Cl—C.OXT-A and PD98059 to media provided in the above-described angiogenesis kits (Kurabo) so that their concentrations became as shown in Table 2 below. In the group using the medium No. 7, the culture was conducted using the medium No. 7 from the first to third days of the culture and the medium No. 5 from the fourth to tenth days of the culture, and in the group using the medium No. 8, the culture was conducted using the medium No. 8 from the first to third days of the culture and the medium No. 6 from the fourth to tenth days of the culture.
In the present example, the relative value of lumen area was calculated in the same manner as in the lumen formation measurement in Example 1, except that the measurement was carried out with respect to six groups respectively using media Nos. 15 to 20 prepared by adding 2-Cl—C.OXT-A, VEGF (positive control), and SU5416 to media provided in the above-described angiogenesis kit (Kurabo) so that their concentrations became as shown in Table 4 below. In the group using the medium No. 16, the culture was conducted using the medium No. 16 from the first to third days of the culture and the medium No. 15 from the fourth to tenth days of the culture; in the group using the medium No. 18, the culture was conducted using the medium No. 18 from the first to third days of the culture and the medium No. 17 from the fourth to tenth days of the culture; and in the group using the medium No. 20, the culture was conducted using the medium No. 20 from the first to third days of the culture and the medium No. 19 from the fourth to tenth days of the culture.

[2] = system: Human umbilical vein endothelial cells (HUVEC); assay: Measurement of cell migration (CytoSelect 24-well Cell Migration Assay); assay type: cell-based; settings: examined in the same manner as in Example 1
Protocol: Measurement of cell migration was carried out in the following manner using CytoSelect 24-well Cell Migration Assay (CBA-100, Cell Biolabs) kits. First, sample solutions were prepared by dissolving 2-Cl—C.OXT-A in physiological saline so as to achieve predetermined concentrations (0.1, 0.5, 1 mmol/l). Then, the sample solutions containing 2-Cl—C.OXT-A at the predetermined concentrations respectively were added to HuMedia-EB2 media (Kurabo) to which 2 v/v % inactivated fetal bovine serum (FBS) had been added so that their concentrations became 10 v/v %. Thus, cell migration media were prepared. The final concentrations of 2-Cl—C.OXT-A in the cell migration media were 10, 50, and 100 μmol/l.
Human umbilical vein endothelial cells (HUVEC) were suspended in a HuMedia-EB2 medium (Kurabo) to which 2 v/v % inactivated fetal bovine serum (FBS) had been added at a density of 0.5×10^6 cells/ml. Thus, a cell suspension was prepared. 300 μl of the cell suspension was added to an upper compartment (i.e., in an insert) of a polycarbonate membrane plate provided in the kit, and 500 μl of the cell migration medium was added to a lower compartment (i.e., in a well) of the plate. Then, the cells were cultured at 37° C. for 24 hours. After the completion of the culture, the membrane on the inner bottom face of the insert was wiped out with a cotton swab to remove the cells on the membrane. Then, cells having migrated to the rear face of the membrane (the membrane on the outer bottom face of the insert) were stained using a staining solution provided in the kit, and then photographed from below the insert. After the photographing, the dye was extracted with an extracting solution provided in the kit, and the absorbance at 560 nm was measured using a microplate reader. As a control, a HuMedia-EB2 medium (Kurabo) to which 2 v/v % inactivated fetal bovine serum (FBS) had been added was used instead of the cell migration medium to carry out the culture, and the cells were stained and the absorbance was measured in the same manner as in the above. Then, using the above equation (I), the relative absorbance in the culture using each of the cell migration media containing 2-Cl—C.OXT-A at the predetermined concentrations was calculated.

[3] = system: Human umbilical vein endothelial cells (HUVEC); assay: Measurement of cell proliferation (Cell Counting Kit-8); assay type: cell-based; settings: examined in the same manner as in Example 1
Protocol: Sample solutions were prepared by dissolving 2-Cl—C.OXT-A in physiological saline so as to achieve predetermined concentrations (0.5, 1, 5, 10, 50, 100 mmol/l). Then, the sample solutions containing 2-Cl—C.OXT-A at the predetermined concentrations respectively were added to HuMedia-EB2 media (Kurabo) to which 2 v/v % inactivated fetal bovine serum (FBS) had been added so that their concentrations became 10 v/v %. Thus, cell proliferation media were prepared. The final concentrations of 2-Cl—C.OXT-A in the cell proliferation media were 50, 100, 500 μmol/l, 1, 5, and 10 mmol/1.
Human umbilical vein endothelial cells (HUVEC) suspended in a HuMedia-EG2 medium (Kurabo) were inoculated into each of gelatin-coated wells of a 96-well plate at a density of 3×10^3 cells per well, and cultured for 24 hours. 24 hours after the start of the culture, the medium was removed, and 100 μl of the cell proliferation medium was added to each well. The cells were cultured for another 48 hours. After the completion of the culture, a color reaction was caused using a Cell Counting Kit-8 (Dojindo Laboratories). 2 hours after the start of the reaction, the absorbance at 450 nm was measured using a microplate reader. As a control, a HuMedia-EB2 medium (Kurabo) to which 2 v/v % inactivated fetal bovine serum (FBS) had been added was used instead of the cell proliferation medium to carry out the culture, and a color reaction was caused and the absorbance was measured in the same manner as in the above. Then, using the following equation (I), the relative absorbance in the culture using each of the cell proliferation media containing 2-Cl—C.OXT-A at the predetermined concentrations was calculated.

| Structure (SMILES) | amount of pERK (ERK; Example 4, 100 μmol/l C.OXT-G, 20 minutes) | relative value of lumen area compared with control ([1]; Example 7, medium No. 8: 2-Cl—C.OXT-A 10 μmol/l + PD98059 10 nmol/l (first to third days)) | increase in pERK (ERK; Example 6, medium No. 3: only PD98059 100 nmol/l) | ERK activation by 2-Cl—C.OXT-A in the presence of PD98059 (ERK; Example 6, medium No. 4: 2-Cl—C.OXT-A 100 μmol/l + PD98059 100 nmol/l) | cell migration promoting-activity for vascular endothelial cells [2] | lumen formation promoting-activity for vascular endothelial cells [1] | cell proliferation promoting-activity for vascular endothelial cells [3] |
| --- | --- | --- | --- | --- | --- | --- | --- |
| Nc1nc2c(ncn2C2CC(CO)C2CO)c(=O)[nH]1 (stereo not drawn) [C.OXT-G, 2-amino-9-[trans-trans-2,3-bis(hydroxymethyl)cyclobutyl]-3H-purine-6-one, reference compound] | not increased | – | – | – | – | – | – |
| COc1cccc(-c2cc(=O)c3ccccc3o2)c1N [PD98059, reference compound] | – | about 1 fold | not observed | inhibited | – | – | – |
| CC(=O)OCC1CC(n2cnc3c(=O)[nH]c(N)nc32)C1COC(C)=O (stereo not drawn) [chemical formula (17), 9-[trans-trans-2,3-bis(acetyloxymethyl)cyclobutyl]guanine] | – | – | – | – | exhibited | exhibited | exhibited |
| CC(=O)OCC1CC(n2c(Br)nc3c(=O)[nH]c(N)nc32)C1COC(C)=O (stereo not drawn) [chemical formula (18), 8-bromo-9-[trans-trans-2,3-bis(acetyloxymethyl)cyclobutyl]guanine] | – | – | – | – | exhibited | exhibited | exhibited |
| Nc1nc2c(nc(Br)n2C2CC(CO)C2CO)c(=O)[nH]1 (stereo not drawn) [chemical formula (19), 8-bromo-9-[trans-trans-2,3-bis(hydroxymethyl)cyclobutyl]guanine] | – | – | – | – | exhibited | exhibited | exhibited |
| CC(=O)OCC1CC(n2c(Cl)nc3c(Cl)nc(N)nc32)C1COC(C)=O (stereo not drawn) [chemical formula (20), 2-amino-6,8-dichloro-9-[trans-trans-2,3-bis(acetyloxymethyl)cyclobutyl]purine] | – | – | – | – | exhibited | exhibited | exhibited |
| COc1nc(N)nc2c1nc(OC)n2C1CC(CO)C1CO (stereo not drawn) [chemical formula (21), 2-amino-6,8-dimethoxy-9-[trans-trans-2,3-bis(hydroxymethyl)cyclobutyl]purine] | – | – | – | – | exhibited | exhibited | exhibited |
